Key:
Format in all cases: in vivo
[1] = test system: Barnyard grass; assay: Herbicidal activity test for indoor pre-emergence soil treatment; parameters: key: level 1-9; higher = more weed remaining vs blank control; conditions: 150 g a.i./ha, visual inspection 21 days after treatment
Summary of the method: (§1)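 Pre-emergence test following NY/T 1155.3-2006: weed seeds were sown in moistened neutral sandy loam (≤2% organic matter) and covered with 0.5–2.0 cm of soil. After 24 h, the soil was sprayed with a 10% EC diluted in water at 150 g(a.i.)/ha. Damage was scored visually on a 1–9 scale at 21 days.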

[2] = test system: Piemarker; assay: as above; parameters: key: level 1-9; higher = more weed remaining vs blank control; conditions: 150 g a.i./ha, visual inspection 21 days after treatment
Summary of the method: as §1

[3] = test system: green bristlegrass; assay: as above; parameters: key: level 1-9; higher = more weed remaining vs blank control; conditions: 150 g a.i./ha, visual inspection 21 days after treatment
Summary of the method: as §1

[4] = test system: Amaranthus retroflexus; assay: as above; parameters: key: 1-9 levels; higher = more weed remaining vs blank control; conditions: 150 g a.i./ha, visual inspection 21 days after treatment
Summary of the method: as §1

[5] = test system: Digitaria sanguinalis; assay: as above; parameters: key: 1-9 levels; higher = more weed remaining vs blank control; conditions: 150 g a.i./ha, visual inspection 21 days after treatment
Summary of the method: as §1

[6] = test system: Humulus scandens; assay: as above; conditions: 150 g a.i./ha, visual inspection 21 days after treatment
Summary of the method: as §1

[7] = test system: Amaranthus retroflexus; assay: Herbicidal activity test for indoor post-emergence spraying on stems and leaves; parameters: key: grade level by weed remaining vs blank control, e.g. 5 = 10.1-15%; conditions: 150 g a.i./ha, visual inspection 21 days after treatment
Summary of the method: (§2)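 Greenhouse-grown weeds, post-emergence foliar spray (NY/T 1155.4-2006 method); visual scoring at 21 d post-treatment as levels vs. untreated blank control (e.g., level 5 = 10.1–15%, level 8 = 35.1–67.5% of control weed).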

[8] = test system: Barnyard grass; assay: as above; parameters: key: grade level by weed remaining vs blank control, e.g. 5 = 10.1-15%; conditions: 150 g a.i./ha, visual inspection 21 days after treatment
Summary of the method: as §2

[9] = test system: Digitaria sanguinalis; assay: as above; parameters: key: grade level by weed remaining vs blank control, e.g. 5 = 10.1-15%; conditions: 150 g a.i./ha, visual inspection 21 days after treatment
Summary of the method: as §2

[10] = test system: Humulus scandens; assay: as above; parameters: key: grade level by weed remaining vs blank control, e.g. 5 = 10.1-15%; conditions: 150 g a.i./ha, visual inspection 21 days after treatment
Summary of the method: as §2

[11] = test system: Piemarker; assay: as above; parameters: key: grade level by weed remaining vs blank control, e.g. 5 = 10.1-15%; conditions: 150 g a.i./ha, visual inspection 21 days after treatment
Summary of the method: as §2

[12] = test system: green bristlegrass; assay: as above; parameters: key: grade level by weed remaining vs blank control, e.g. 5 = 10.1-15%; conditions: 150 g a.i./ha, visual inspection 21 days after treatment
Summary of the method: as §2

[13] = test system: Broadleaf weed; assay: Post-emergence herbicidal activity test in a paddy field; parameters: key: level scale; higher level = more weed left vs blank control; conditions: 150 g a.i./ha (penoxsulam control 250 g(a.i.)/h)
Summary of the method: (§3)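 Efficacy was visually estimated 15 and 30 days after spraying, grading weed coverage relative to an untreated neighbouring plot (level 2 = 0 to 2.5%, level 9 = 67.6 to 100%). Treatments were 150 g(a.i.)/ha from 10% emulsifiable concentrates applied at the 4-5 leaf rice stage, four repeats of 50 m^2 each.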

[14] = test system: Cyperaceae; assay: as above; parameters: key: level scale; higher level = more weed left vs blank control; conditions: 150 g a.i./ha (penoxsulam control 250 g(a.i.)/h)
Summary of the method: as §3

[15] = test system: Gramineae; assay: as above; parameters: key: level scale; higher level = more weed left vs blank control; conditions: 150 g a.i./ha (penoxsulam control 250 g(a.i.)/h)
Summary of the method: as §3

[16] = test system: Acalypha australis; assay: Field test for weed control in a corn field; conditions: 150 g a.i./ha, after treatment
Summary of the method: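 Herbicidal activity against weeds was assessed in corn plots by the GB/T 17980.42-2000 method. Corn at the 2–5 leaf stage received water sprays of 10% emulsifiable concentrates at 150 g(a.i.)/ha, four repeats per treatment over 20 m^2. A 25% mesotrione oil dispersion was the reference. Damage symptoms and severity were rated on levels 1-9 relative to weeds in the blank control area.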

[17] = test system: Amaranthus retroflexus; assay: Field test for weed control in a corn field; conditions: 150 g a.i./ha, 30 days after treatment
Summary of the method: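 Post-emergence control of Amaranthus retroflexus was assessed in corn plots using the GB/T 17980.42-2000 method. Emulsifiable concentrates (10%) in water were applied by spraying at the 2- to 5-leaf crop stage on 20 m^2 plots, four replicates each, alongside a mesotrione 25% oil dispersion reference. Herbicidal activity was scored on 1-9 levels by weed amount relative to blank control areas.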

[18] = test system: Barnyard grass; assay: Field test for weed control in a corn field; conditions: 150 g a.i./ha, 30 days after treatment
Summary of the method: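 Herbicidal activity against barnyard grass was assessed in corn field plots of 20 m^2, with four replicates per treatment. Compounds were applied as water-diluted 10% emulsifiable concentrates at 150 g(a.i.)/ha at the 2-5 leaf corn stage, with 25% mesotrione oil dispersion as the reference agent. Damage was scored on a 1-9 scale against untreated blank plots.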

[19] = test system: Chenopodium album; assay: Field test for weed control in a corn field; conditions: 150 g a.i./ha, after treatment
Summary of the method: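 Field weed-control testing in corn, run per GB/T 17980.42-2000, scored Chenopodium album on a 1-9 level scale, where each level matches a percentage range of weed remaining relative to the blank control area. Sprays of 10% emulsifiable concentrates in water delivered 150 g(a.i.)/ha at the corn 2-leaf to 5-leaf stage on 20 m^2 plots, four replicates each. Mesotrione 25% oil dispersion served as reference.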

[20] = test system: Convolvulus arvensis; assay: Field test for weed control in a corn field; conditions: 150 g a.i./ha, after treatment
Summary of the method: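 Post-emergence herbicidal activity on Convolvulus arvensis was scored in a corn field on a 1-9 scale, based on symptoms and damage severity. Each level corresponds to the weed remaining as a percentage of the blank control area. Sprays of 10% emulsifiable concentrate at 150 g(a.i.)/ha went on at the corn 2–5 leaf stage, with four replicates of 20 m^2 per treatment.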

[21] = test system: Digitaria sanguinalis; assay: Field test for weed control in a corn field; conditions: 150 g a.i./ha, after treatment
Summary of the method: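 Field trial in a corn field following GB/T 17980.42-2000. Test compounds were formulated as 10% emulsifiable concentrates, diluted in water and sprayed post-emergence at 150 g(a.i.)/ha when corn had 2 to 5 leaves, with 4 replicates on 20 m^2 plots. Control of Digitaria sanguinalis was scored on a 1-9 scale based on weed damage relative to the untreated blank area.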

[22] = test system: Portulaca oleracea; assay: Field test for weed control in a corn field; conditions: 150 g a.i./ha, after treatment
Summary of the method: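 Post-emergence weed control was evaluated in a corn field by the GB/T 17980.42-2000 method. Emulsifiable concentrates (10%) in water were applied as sprays at 150 g(a.i.)/ha at the 2-5 leaf corn stage, in four replicate 20 m^2 plots. A 25% mesotrione oil dispersion served as control agent. Effects were graded 1-9 relative to weed remaining in blank control areas.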

[23] = test system: Solanum nigrum; assay: Field test for weed control in a corn field; conditions: 150 g a.i./ha, 30 days after treatment
Summary of the method: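 In a corn field trial based on GB/T 17980.42-2000, 10% emulsifiable concentrates diluted in water were sprayed at 150 g(a.i.)/ha at the 2 to 5 leaf stage of corn. Each treatment used 20 m^2 plots and was repeated 4 times, with 25% mesotrione oil dispersion as the reference agent. Solanum nigrum damage was scored on a 1-9 scale against blank control plots.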

[24] = test system: goosegrass; assay: Field test for weed control in a corn field; conditions: 150 g a.i./ha, after treatment
Summary of the method: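 In this field trial in corn, run per GB/T 17980.42-2000, test agents prepared as 10% emulsifiable concentrates were applied in water as sprays at 150 g(a.i.)/ha at the 2- to 5-leaf corn stage. Each treatment covered 20 m^2 and was repeated 4 times. Goosegrass control was scored 1-9 relative to weed remaining in blank control areas.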

[25] = test system: green bristlegrass; assay: Field test for weed control in a corn field; conditions: 150 g a.i./ha, after treatment
Summary of the method: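 Herbicidal activity against green bristlegrass was assessed in corn field plots of 20 m^2 per GB/T 17980.42-2000. Test agents, formulated as 10% emulsifiable concentrates, were applied in water at 150 g(a.i.)/ha at the corn 2 leaves to 5 leaves stage, repeated 4 times. A 25% mesotrione oil dispersion served as the control agent, and weed damage was rated on levels 1-9.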

[26] = test system: nutgrass flatsedge; assay: Field test for weed control in a corn field; conditions: 150 g a.i./ha, after treatment
Summary of the method: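 Herbicidal effect on nutgrass flatsedge was measured in a field planted with corn, using the GB/T 17980.42-2000 method. Emulsifiable concentrates (10%) in water were sprayed at 150 g(a.i.)/ha during the 2-leaf to 5-leaf corn stage, on 20 m^2 plots repeated 4 times. 25% mesotrione oil dispersion was the control agent. Activity was scored from 1 to 9 by weed remaining relative to blank control plots.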

Row | Compound | Herbicidal Activity Barnyard grass [1] | Herbicidal Activity Piemarker [2] | Herbicidal Activity Green bristlegrass [3] | Herbicidal Activity Amaranthus retroflexus [4] | Herbicidal Activity Digitaria sanguinalis [5] | Herbicidal Activity Humulus scandens [6] | Herbicidal Activity Amaranthus retroflexus [7] | Herbicidal Activity Barnyard grass [8] | Herbicidal Activity Digitaria sanguinalis [9] | Herbicidal Activity Humulus scandens [10] | Herbicidal Activity Piemarker [11] | Herbicidal Activity Green bristlegrass [12] | Herbicidal activity 15 days after treatment Broadleaf weed [13] | Herbicidal activity 30 days after treatment Broadleaf weed [13] | Herbicidal activity 15 days after treatment Cyperaceae [14] | Herbicidal activity 30 days after treatment Cyperaceae [14] | Herbicidal activity 15 days after treatment Gramineae [15] | Herbicidal activity 30 days after treatment Gramineae [15] | Post-emergence weed control effect, Acalypha australis [16] | Post-emergence weed control effect, Amaranthus retroflexus [17] | further results
1 | COc1cccc(CNC(=O)c2cccnc2OC)c1 [Compound A87] | 2 (equivalent to 0 to 2.5% of the weed in the blank control area) | 2 (equivalent to 0 to 2.5% of the weed in the blank control area) | 1 | 2 (equivalent to 0 to 2.5% of the weed in the blank control area) | 2 (equivalent to 0 to 2.5% of the weed in the blank control area) | 3 (equivalent to 2.6 to 5% of the weed in the blank control area) | 1 | 2 (equivalent to 0 to 2.5% of the weed in the blank control area) | 1 | 1 | 1 | 1 | 1 | 1 | 1 | 1 | 2 (equivalent to 0 to 2.5% of the weed in the blank control area) | 1 | 2 (equivalent to 0 to 2.5% of the weed in the blank control area) | 1 | Post-emergence weed control effect, Barnyard grass [18]: 1; Post-emergence weed control effect, Chenopodium album [19]: 1; Post-emergence weed control effect, Convolvulus arvensis [20]: 1; Post-emergence weed control effect, Digitaria sanguinalis [21]: 2 (equivalent to 0 to 2.5% of the weed in the blank control area); Post-emergence weed control effect, Portulaca oleracea [22]: 1; Post-emergence weed control effect, Solanum nigrum [23]: 2 (equivalent to 0 to 2.5% of the weed in the blank control area); Post-emergence weed control effect, Goose grass [24]: 2 (equivalent to 0 to 2.5% of the weed in the blank control area); Post-emergence weed control effect, Green bristlegrass [25]: 1; Post-emergence weed control effect, Nutgrass flatsedge [26]: 2 (equivalent to 0 to 2.5% of the weed in the blank control area)
2 | COc1ncccc1C(=O)NCc1cc(F)cc(Cl)c1 [Compound A89] | 1 | 1 | 1 | 1 | 2 (equivalent to 0 to 2.5% of the weed in the blank control area) | 2 (equivalent to 0 to 2.5% of the weed in the blank control area) | 1 | 1 | 1 | 1 | 1 | 1 | 1 | 1 | 1 | 1 | 1 | 1 | 1 | 1 | Post-emergence weed control effect, Barnyard grass [18]: 1; Post-emergence weed control effect, Chenopodium album [19]: 1; Post-emergence weed control effect, Convolvulus arvensis [20]: 1; Post-emergence weed control effect, Digitaria sanguinalis [21]: 2 (equivalent to 0 to 2.5% of the weed in the blank control area); Post-emergence weed control effect, Portulaca oleracea [22]: 1; Post-emergence weed control effect, Solanum nigrum [23]: 2 (equivalent to 0 to 2.5% of the weed in the blank control area); Post-emergence weed control effect, Goose grass [24]: 2 (equivalent to 0 to 2.5% of the weed in the blank control area); Post-emergence weed control effect, Green bristlegrass [25]: 1; Post-emergence weed control effect, Nutgrass flatsedge [26]: 2 (equivalent to 0 to 2.5% of the weed in the blank control area)

Source: patent publication US20220330549A1, “USE OF N-BENZYLBENZAMIDE-BASED COMPOUND AS HERBICIDE” (Northwest A&F University, priority 2020, published 2022)
